# Read-outs that look alike come from different tables or passages of the source.
# Experiment: in vivo
# Conditions: for concentration at 1 day / concentration at 7 day / concentration at 14 day / concentration at 21 day / concentration at 28 day / concentration at 35 day / concentration at 42 day / concentration at 49 day / concentration at 56 day / concentration at 63 day / concentration at 70 day / concentration at 77 day / concentration at 84 day: male, Wistar Han, rat, in vivo
# Procedure, shortened: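 Three male Wistar Han rats (200-250 g), not fasted, received a single intramuscular gastrocnemius injection of prodrug suspension at 20 mg/kg EFdA equivalent. Tail-vein blood was taken into NaF/Na2EDTA, mixed 1:1 with 100 mM ammonium acetate pH 4, frozen, and analysed by LC-MS/MS.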
compound,measurement,setting,value
"C#C[C@]1(COP(=O)(N[C@@H](Cc2ccccc2)C(=O)OC(CCCCCCCCCCC)CCCCCCCCCCC)Oc2ccccc2)O[C@@H](n2cnc3c(N)nc(F)nc32)C[C@@H]1O (single isomer, unassigned) [Example 26A]",Mean concentration of EFdA,"day 1, single IM Example 26A 63 mg/kg","BQL (BQL = below quantification limit, 0.3 ng/ml for both)"
same,Mean concentration of EFdA,"day 7, single IM Example 26A 63 mg/kg","BQL (BQL = below quantification limit, 0.3 ng/ml for both)"
same,Mean concentration of EFdA,"day 14, single IM Example 26A 63 mg/kg","BQL (BQL = below quantification limit, 0.3 ng/ml for both)"
same,Mean concentration of EFdA,"day 21, single IM Example 26A 63 mg/kg","BQL (BQL = below quantification limit, 0.3 ng/ml for both)"
same,Mean concentration of EFdA,"day 28, single IM Example 26A 63 mg/kg","BQL (BQL = below quantification limit, 0.3 ng/ml for both)"
same,Mean concentration of EFdA,"day 35, single IM Example 26A 63 mg/kg","BQL (BQL = below quantification limit, 0.3 ng/ml for both)"
same,Mean concentration of EFdA,"day 42, single IM Example 26A 63 mg/kg","BQL (BQL = below quantification limit, 0.3 ng/ml for both)"
same,Mean concentration of EFdA,"day 49, single IM Example 26A 63 mg/kg","BQL (BQL = below quantification limit, 0.3 ng/ml for both)"
same,Mean concentration of EFdA,"day 56, single IM Example 26A 63 mg/kg","BQL (BQL = below quantification limit, 0.3 ng/ml for both)"
same,Mean concentration of EFdA,"day 63, single IM Example 26A 63 mg/kg","BQL (BQL = below quantification limit, 0.3 ng/ml for both)"
same,Mean concentration of EFdA,"day 70, single IM Example 26A 63 mg/kg","BQL (BQL = below quantification limit, 0.3 ng/ml for both)"
same,Mean concentration of EFdA,"day 77, single IM Example 26A 63 mg/kg","BQL (BQL = below quantification limit, 0.3 ng/ml for both)"
same,Mean concentration of EFdA,"day 84, single IM Example 26A 63 mg/kg","BQL (BQL = below quantification limit, 0.3 ng/ml for both)"
same,concentration at 1 day,"day 1, single IM 63 mg/kg, read-out: Mean concentration of Example 26A",72.7 ng/mL
same,concentration at 7 day,"day 7, single IM 63 mg/kg, read-out: Mean concentration of Example 26A",37.6 ng/mL
same,concentration at 14 day,"day 14, single IM 63 mg/kg, read-out: Mean concentration of Example 26A",33.8 ng/mL
same,concentration at 21 day,"day 21, single IM 63 mg/kg, read-out: Mean concentration of Example 26A",22.9 ng/mL
same,concentration at 28 day,"day 28, single IM 63 mg/kg, read-out: Mean concentration of Example 26A",18.5 ng/mL
same,concentration at 35 day,"day 35, single IM 63 mg/kg, read-out: Mean concentration of Example 26A",14.4 ng/mL
same,concentration at 42 day,"day 42, single IM 63 mg/kg, read-out: Mean concentration of Example 26A",11.1 ng/mL
same,concentration at 49 day,"day 49, single IM 63 mg/kg, read-out: Mean concentration of Example 26A",9.62 ng/mL
same,concentration at 56 day,"day 56, single IM 63 mg/kg, read-out: Mean concentration of Example 26A",9.8 ng/mL
same,concentration at 63 day,"day 63, single IM 63 mg/kg, read-out: Mean concentration of Example 26A",11.5 ng/mL
same,concentration at 70 day,"day 70, single IM 63 mg/kg, read-out: Mean concentration of Example 26A",9.95 ng/mL
same,concentration at 77 day,"day 77, single IM 63 mg/kg, read-out: Mean concentration of Example 26A",9.69 ng/mL
same,concentration at 84 day,"day 84, single IM 63 mg/kg, read-out: Mean concentration of Example 26A",7.43 ng/mL
"C#C[C@]1(COP(=O)(N[C@@H](C)C(=O)OC(CCCCCCCCCC)CCCCCCCCCC)Oc2ccccc2)O[C@@H](n2cnc3c(N)nc(F)nc32)C[C@@H]1O (single isomer, unassigned) [Example 37A]",Mean concentration of EFdA,"day 21, single IM Example 37A 56 mg/kg","BQL (BQL = below quantification limit, 0.3 ng/ml for both)"
same,Mean concentration of EFdA,"day 28, single IM Example 37A 56 mg/kg","BQL (BQL = below quantification limit, 0.3 ng/ml for both)"
same,Mean concentration of EFdA,"day 35, single IM Example 37A 56 mg/kg","BQL (BQL = below quantification limit, 0.3 ng/ml for both)"
same,Mean concentration of EFdA,"day 42, single IM Example 37A 56 mg/kg","BQL (BQL = below quantification limit, 0.3 ng/ml for both)"
same,Mean concentration of EFdA,"day 49, single IM Example 37A 56 mg/kg","BQL (BQL = below quantification limit, 0.3 ng/ml for both)"
same,Mean concentration of EFdA,"day 56, single IM Example 37A 56 mg/kg","BQL (BQL = below quantification limit, 0.3 ng/ml for both)"
same,Mean concentration of EFdA,"day 63, single IM Example 37A 56 mg/kg","BQL (BQL = below quantification limit, 0.3 ng/ml for both)"
same,Mean concentration of EFdA,"day 70, single IM Example 37A 56 mg/kg","BQL (BQL = below quantification limit, 0.3 ng/ml for both)"
same,Mean concentration of EFdA,"day 77, single IM Example 37A 56 mg/kg","BQL (BQL = below quantification limit, 0.3 ng/ml for both)"
same,Mean concentration of EFdA,"day 84, single IM Example 37A 56 mg/kg","BQL (BQL = below quantification limit, 0.3 ng/ml for both)"
same,concentration at 1 day,"day 1, single IM Example 37A 56 mg/kg, read-out: Mean concentration of Example 37A",17.9 ng/mL
same,concentration at 7 day,"day 7, single IM Example 37A 56 mg/kg, read-out: Mean concentration of Example 37A",3.58 ng/mL
same,concentration at 14 day,"day 14, single IM Example 37A 56 mg/kg, read-out: Mean concentration of Example 37A",3.8 ng/mL
same,concentration at 21 day,"day 21, single IM Example 37A 56 mg/kg, read-out: Mean concentration of Example 37A",5.16 ng/mL
same,concentration at 28 day,"day 28, single IM Example 37A 56 mg/kg, read-out: Mean concentration of Example 37A",4.16 ng/mL
same,concentration at 35 day,"day 35, single IM Example 37A 56 mg/kg, read-out: Mean concentration of Example 37A",4.95 ng/mL
same,concentration at 42 day,"day 42, single IM Example 37A 56 mg/kg, read-out: Mean concentration of Example 37A",5.29 ng/mL
same,concentration at 49 day,"day 49, single IM Example 37A 56 mg/kg, read-out: Mean concentration of Example 37A",4.89 ng/mL
same,concentration at 56 day,"day 56, single IM Example 37A 56 mg/kg, read-out: Mean concentration of Example 37A",4.94 ng/mL
same,concentration at 63 day,"day 63, single IM Example 37A 56 mg/kg, read-out: Mean concentration of Example 37A",4.46 ng/mL
same,concentration at 70 day,"day 70, single IM Example 37A 56 mg/kg, read-out: Mean concentration of Example 37A",3.78 ng/mL
same,concentration at 77 day,"day 77, single IM Example 37A 56 mg/kg, read-out: Mean concentration of Example 37A",3.46 ng/mL
same,concentration at 84 day,"day 84, single IM Example 37A 56 mg/kg, read-out: Mean concentration of Example 37A",3.32 ng/mL

# Source: patent US20230151049A1, “Compounds Useful in HIV Therapy” (priority 2020, published 2023)
